The values that follow come from publication PMC7719162, “Positioning of an unprecedented spiro[5.5]undeca ring system into kinase inhibitor space” (Scientific Reports, 2020).

Each structure is given as a SMILES string. Where two headings read alike, the source gives them in different places.

One data set addresses T1, P38b/MAPK11 (Homo sapiens, UniProt Q15759).
T1 construct: purchased Reaction Biology Corp
Particulars: cited from earlier work.

The next data set addresses T2, TRKA (Homo sapiens, UniProt P04629).
T2 construct: purchased Reaction Biology Corp
Particulars: cited from earlier work.

The target of a further data set is T3, JNK2 (Homo sapiens, UniProt P45984).
T3 construct: purchased Reaction Biology Corp
To be noted: cited from earlier work.

The subject of another data set is BV-2 cells. Kind of data set: MTT cell viability assay. The format is cell-based, murine. To be noted: 5 μM compound, % of LPS, mean ± SD. On the procedure: (§1) 3-(4,5-dimethylthiazol-2-yl)-2,5-diphenyl-tetrazolium bromide (MTT) assay was performed to evaluate the cytotoxicity of the samples to the microglia. BV2 cells at the density of 4 × 10^4 cells /well were seeded in the 96 well plate and incubated for 24 h. Seeded cells were pre-treated with different concentration of the samples, and LPS (100 ng/ml) activation was performed after 30 min of compound treatment. Treated plate were incubated for 24 h in the incubator and nitric oxide assay and cell viability assay was performed. Treated cell’s conditioned medium was used to evaluate the NO assay, and the attached cells were used to evaluate the cell viability assay. 50 µL of conditioned medium (CM) from treated cells were transferred to a new 96 well plate for NO assay. This CM was mixed with the equal volume of the mixture of Gries reagent ((1% sulfanilamide and 0.1% N-1-napthylethylenediamine dihydrochloride). NaNO2 was used as standard and the colorimetric change were evidenced by measuring its OD at 540 nm in a microplate reader. The cells in the plate were incubated for 1 h with MTT solution making it the final concentration of […]. Blue stained cells were incubated with 200 ul of DMSO and the solution get changed to purple/formazan color and it was observed by measuring the absorbance at 570 nm in a microplate reader.NG-mono-methyl-L-arginine (L-NMMA), a well-known nitric oxide synthase (NOS) inhibitor, was used as a positive control.

The target in the next data set is T4, ROCK2 (Homo sapiens, UniProt O75116).
T4 construct: purchased Reaction Biology Corp
To be noted: cited from earlier work.

A further data set concerns the target T5, TLK1 (Homo sapiens, UniProt Q9UKI8).
T5 construct: purchased Reaction Biology Corp
T5 sequence (Q9UKI8 1-766): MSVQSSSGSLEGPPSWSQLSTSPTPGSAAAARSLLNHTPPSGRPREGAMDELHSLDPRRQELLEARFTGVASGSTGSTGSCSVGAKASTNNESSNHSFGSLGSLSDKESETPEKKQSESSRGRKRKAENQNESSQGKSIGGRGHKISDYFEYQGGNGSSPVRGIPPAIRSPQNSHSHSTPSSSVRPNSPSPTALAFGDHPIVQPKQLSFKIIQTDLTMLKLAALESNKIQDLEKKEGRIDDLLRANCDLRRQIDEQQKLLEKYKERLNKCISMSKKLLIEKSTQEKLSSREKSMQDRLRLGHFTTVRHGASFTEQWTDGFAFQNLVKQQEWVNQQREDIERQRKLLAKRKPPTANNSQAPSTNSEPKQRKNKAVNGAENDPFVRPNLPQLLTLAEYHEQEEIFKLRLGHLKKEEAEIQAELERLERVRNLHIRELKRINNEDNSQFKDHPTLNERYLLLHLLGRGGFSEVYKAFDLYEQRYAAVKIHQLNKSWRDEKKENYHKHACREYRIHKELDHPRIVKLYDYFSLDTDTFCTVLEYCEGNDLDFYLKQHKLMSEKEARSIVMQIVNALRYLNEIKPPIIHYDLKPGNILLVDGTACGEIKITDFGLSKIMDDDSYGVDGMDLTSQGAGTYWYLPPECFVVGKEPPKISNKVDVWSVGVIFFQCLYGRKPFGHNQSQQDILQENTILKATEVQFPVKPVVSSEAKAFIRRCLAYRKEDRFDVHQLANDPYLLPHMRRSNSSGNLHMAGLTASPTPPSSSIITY
Particulars: cited from earlier work.

In a further data set the target is T6, PI4Ka (Homo sapiens, UniProt P42356).
T6 construct: purchased Reaction Biology Corp
T6 sequence (P42356 whole entry): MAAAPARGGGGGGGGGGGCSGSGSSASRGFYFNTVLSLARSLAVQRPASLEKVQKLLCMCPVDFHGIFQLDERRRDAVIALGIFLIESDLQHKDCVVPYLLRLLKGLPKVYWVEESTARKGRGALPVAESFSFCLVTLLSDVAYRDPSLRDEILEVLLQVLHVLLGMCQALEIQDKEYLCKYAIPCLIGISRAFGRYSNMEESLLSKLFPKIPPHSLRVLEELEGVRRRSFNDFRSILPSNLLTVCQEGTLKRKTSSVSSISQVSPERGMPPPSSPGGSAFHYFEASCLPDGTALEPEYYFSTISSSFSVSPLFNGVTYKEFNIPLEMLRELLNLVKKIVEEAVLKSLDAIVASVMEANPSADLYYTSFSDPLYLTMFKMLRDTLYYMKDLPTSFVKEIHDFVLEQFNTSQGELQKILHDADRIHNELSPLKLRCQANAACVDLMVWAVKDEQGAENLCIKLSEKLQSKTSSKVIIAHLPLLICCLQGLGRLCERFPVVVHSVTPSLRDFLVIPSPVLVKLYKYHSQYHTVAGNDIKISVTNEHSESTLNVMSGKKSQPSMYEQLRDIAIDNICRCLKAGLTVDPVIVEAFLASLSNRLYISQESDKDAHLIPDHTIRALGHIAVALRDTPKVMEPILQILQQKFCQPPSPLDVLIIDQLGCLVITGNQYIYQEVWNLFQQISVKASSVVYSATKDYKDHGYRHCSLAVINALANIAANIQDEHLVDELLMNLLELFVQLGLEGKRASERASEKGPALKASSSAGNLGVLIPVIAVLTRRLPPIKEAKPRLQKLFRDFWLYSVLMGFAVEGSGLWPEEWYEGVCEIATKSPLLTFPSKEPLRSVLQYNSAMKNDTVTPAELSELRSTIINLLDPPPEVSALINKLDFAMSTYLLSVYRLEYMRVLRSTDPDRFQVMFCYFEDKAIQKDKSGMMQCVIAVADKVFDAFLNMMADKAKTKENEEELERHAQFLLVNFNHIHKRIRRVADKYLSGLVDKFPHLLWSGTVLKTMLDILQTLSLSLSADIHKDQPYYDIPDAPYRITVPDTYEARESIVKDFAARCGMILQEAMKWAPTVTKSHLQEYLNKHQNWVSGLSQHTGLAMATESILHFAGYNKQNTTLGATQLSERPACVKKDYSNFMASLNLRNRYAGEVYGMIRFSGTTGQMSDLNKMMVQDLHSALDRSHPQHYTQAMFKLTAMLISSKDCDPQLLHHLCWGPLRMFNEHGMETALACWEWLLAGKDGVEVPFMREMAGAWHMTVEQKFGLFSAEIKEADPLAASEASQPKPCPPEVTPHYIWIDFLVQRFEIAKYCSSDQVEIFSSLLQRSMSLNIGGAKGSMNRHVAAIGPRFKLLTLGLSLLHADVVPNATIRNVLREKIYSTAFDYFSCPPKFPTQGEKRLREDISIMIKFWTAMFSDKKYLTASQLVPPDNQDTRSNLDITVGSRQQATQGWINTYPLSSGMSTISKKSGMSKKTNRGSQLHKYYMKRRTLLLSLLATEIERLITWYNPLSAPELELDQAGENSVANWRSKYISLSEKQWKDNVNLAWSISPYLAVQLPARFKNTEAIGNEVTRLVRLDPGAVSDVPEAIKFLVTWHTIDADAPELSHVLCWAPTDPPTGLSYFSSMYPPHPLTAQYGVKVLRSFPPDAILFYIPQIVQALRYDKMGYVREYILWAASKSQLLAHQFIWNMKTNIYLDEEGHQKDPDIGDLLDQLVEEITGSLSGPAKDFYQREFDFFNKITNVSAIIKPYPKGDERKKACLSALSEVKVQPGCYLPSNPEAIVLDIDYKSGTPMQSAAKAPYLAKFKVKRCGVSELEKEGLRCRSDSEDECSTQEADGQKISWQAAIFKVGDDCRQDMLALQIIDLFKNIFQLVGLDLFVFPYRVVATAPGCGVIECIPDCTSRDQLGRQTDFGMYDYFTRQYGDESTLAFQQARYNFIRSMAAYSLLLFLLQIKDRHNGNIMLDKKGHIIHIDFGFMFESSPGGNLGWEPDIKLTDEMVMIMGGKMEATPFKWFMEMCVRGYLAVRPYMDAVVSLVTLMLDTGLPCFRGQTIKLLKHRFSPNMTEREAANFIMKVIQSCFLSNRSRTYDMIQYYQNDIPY
Kind of data set: Kinase panel assay (lipid kinase). It is filed as biochemical. Particulars: 30 μM compound, ATP 10 μM, duplicates Data 1/Data 2.

The target of a further data set is T7, PKN2/PRK2 (Homo sapiens, UniProt Q16513).
T7 construct: purchased Reaction Biology Corp
T7 sequence (Q16513 whole entry): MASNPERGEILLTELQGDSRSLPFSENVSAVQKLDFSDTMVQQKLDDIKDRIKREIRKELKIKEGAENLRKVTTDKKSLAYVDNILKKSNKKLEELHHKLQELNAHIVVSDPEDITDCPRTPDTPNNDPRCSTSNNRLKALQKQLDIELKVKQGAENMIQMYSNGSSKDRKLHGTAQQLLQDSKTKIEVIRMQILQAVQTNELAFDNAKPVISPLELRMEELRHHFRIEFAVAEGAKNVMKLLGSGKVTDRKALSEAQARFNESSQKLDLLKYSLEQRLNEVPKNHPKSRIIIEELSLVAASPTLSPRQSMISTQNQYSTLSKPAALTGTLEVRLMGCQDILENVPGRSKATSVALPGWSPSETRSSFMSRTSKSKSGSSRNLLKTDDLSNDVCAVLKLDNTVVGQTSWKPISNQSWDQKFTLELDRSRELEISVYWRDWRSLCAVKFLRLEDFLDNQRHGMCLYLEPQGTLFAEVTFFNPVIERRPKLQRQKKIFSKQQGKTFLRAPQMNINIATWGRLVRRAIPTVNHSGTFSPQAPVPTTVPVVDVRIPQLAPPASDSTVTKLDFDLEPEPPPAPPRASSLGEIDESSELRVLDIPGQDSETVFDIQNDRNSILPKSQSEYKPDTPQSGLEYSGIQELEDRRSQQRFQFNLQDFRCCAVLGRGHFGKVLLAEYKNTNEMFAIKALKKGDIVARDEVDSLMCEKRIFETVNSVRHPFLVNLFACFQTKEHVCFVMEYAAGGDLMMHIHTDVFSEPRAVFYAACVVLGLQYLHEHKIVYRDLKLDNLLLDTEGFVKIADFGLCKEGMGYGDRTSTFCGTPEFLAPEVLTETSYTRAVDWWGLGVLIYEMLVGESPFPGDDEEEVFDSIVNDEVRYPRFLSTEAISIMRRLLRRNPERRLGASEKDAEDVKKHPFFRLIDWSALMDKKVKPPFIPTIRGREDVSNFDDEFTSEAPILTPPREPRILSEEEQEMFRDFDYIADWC
Kind of data set: Kinase panel assay (radiolabelled). It is filed as biochemical. Particulars: ATP 10 μM.

The nature of the next data set: MTT cell viability assay. It is filed as cell-based, murine. Particulars: mouse, BV-2 microglia cells (LPS-activated), mean ± SD. On the procedure: as §1
In another data set the target is T8, TRKA (G595R) (Homo sapiens, UniProt P04629, G595R).
T8 construct: purchased Reaction Biology Corp
T8 sequence (P04629 33-796 G595R): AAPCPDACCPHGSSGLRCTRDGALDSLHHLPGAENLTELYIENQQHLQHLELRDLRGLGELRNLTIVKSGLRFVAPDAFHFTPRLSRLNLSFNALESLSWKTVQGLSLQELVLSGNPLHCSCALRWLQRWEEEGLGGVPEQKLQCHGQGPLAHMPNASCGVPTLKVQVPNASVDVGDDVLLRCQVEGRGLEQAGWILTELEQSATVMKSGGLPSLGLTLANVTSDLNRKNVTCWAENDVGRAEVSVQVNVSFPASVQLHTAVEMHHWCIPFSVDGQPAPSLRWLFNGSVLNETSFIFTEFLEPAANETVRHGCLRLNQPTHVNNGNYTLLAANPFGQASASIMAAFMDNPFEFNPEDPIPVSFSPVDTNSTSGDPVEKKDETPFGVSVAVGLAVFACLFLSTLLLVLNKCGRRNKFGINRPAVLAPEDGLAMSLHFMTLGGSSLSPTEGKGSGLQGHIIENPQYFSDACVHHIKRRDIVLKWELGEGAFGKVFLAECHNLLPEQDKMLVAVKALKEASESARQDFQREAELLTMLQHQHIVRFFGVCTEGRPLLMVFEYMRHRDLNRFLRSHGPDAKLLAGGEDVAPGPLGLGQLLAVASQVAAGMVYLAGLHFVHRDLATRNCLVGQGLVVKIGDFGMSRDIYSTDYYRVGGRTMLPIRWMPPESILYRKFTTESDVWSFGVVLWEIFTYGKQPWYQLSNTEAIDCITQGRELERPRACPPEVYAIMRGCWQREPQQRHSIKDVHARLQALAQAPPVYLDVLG
In words: Kinase panel assay (radiolabelled). To be noted: 30 μM compound, ATP 10 μM, duplicates Data 1/Data 2. The format is biochemical.

The target of the next data set is T9, SPHK2 (Homo sapiens, UniProt Q9NRA0).
T9 construct: purchased Reaction Biology Corp
T9 sequence (Q9NRA0 whole entry): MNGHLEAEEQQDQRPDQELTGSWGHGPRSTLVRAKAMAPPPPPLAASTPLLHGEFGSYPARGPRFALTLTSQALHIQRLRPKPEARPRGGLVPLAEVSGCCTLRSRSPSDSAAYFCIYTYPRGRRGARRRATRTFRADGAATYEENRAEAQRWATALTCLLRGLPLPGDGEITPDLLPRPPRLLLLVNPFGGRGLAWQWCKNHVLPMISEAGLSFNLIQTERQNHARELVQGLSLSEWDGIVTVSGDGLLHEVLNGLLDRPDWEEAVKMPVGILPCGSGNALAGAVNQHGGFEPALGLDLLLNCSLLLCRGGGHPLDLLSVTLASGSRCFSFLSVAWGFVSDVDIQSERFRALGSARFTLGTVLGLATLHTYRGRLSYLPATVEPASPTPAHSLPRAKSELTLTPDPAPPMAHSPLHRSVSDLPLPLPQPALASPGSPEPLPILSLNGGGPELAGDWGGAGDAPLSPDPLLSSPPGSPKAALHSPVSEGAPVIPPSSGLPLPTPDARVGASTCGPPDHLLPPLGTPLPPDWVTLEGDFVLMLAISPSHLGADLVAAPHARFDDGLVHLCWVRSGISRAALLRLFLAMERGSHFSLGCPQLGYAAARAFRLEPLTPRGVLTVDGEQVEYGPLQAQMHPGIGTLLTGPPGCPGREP
Kind of data set: Kinase panel assay (lipid kinase). To be noted: 30 μM compound, ATP 10 μM, duplicates Data 1/Data 2. The format is biochemical.

The next data set deals with IL-6. Kind of data set: Secreted IL-6 ELISA in LPS-induced BV-2 cells. The format is cell-based, murine. On the procedure: To evaluate the secreted level of Prostaglandin E2 (PGE2), Tumor necrosis factor (TNF-α), Interleukin (IL-6), Interleukin (IL-1β), BV2 cells were seeded in a 6 well plate at the density of 1.5 × 10^6 cells/well in DMEM and incubated for 24 h. Seeded cells sere pretreated and, activated with LPS for next 24 h. conditioned medium from treated cells were collected and stored at -80 degree for longer period of time. The amount of TNF-α, IL-1β, PGE2,and IL-6 were evaluated using the competitive enzyme immunoassay kit. PGE2 kit were obtained from (Cayman Chemical, Ann Arbor, MI, USA) and TNF-α, IL-1β, and IL-6 were measured using ELISA development kits (R&D Systems, Minneapolis, MN, USA). All the protocol was exactly followed as written in the manual.
A general note: ELISA stands for enzyme-linked immunosorbent assay.

The next data set deals with COX-2. Kind of data set: Western blot of COX-2 in LPS-induced BV-2 cells. The format is cell-based, murine. Particulars: 0.01 to 1 uM. On the procedure: Western blot analysis was performed to see the protein expression of the iNOS and COX-2 in the BV2 cells. BV2 cells were seeded in a 6 well plate at the density of 6 × 10^5 cells/well overnight and cells were treated as mentioned earlier in the cell treatment section and this time treatment was performed for 6 h only. After 6 h, cells were harvested and lysed with lysis buffer containing (RIPA, protease inhibitor & phosphatase inhibitor), protein estimation was performed using biorad assay and the 30 µg of total protein was separated by 8% SDS-PAGE gel electrophoresis, transferred to nitrocellulose membranes, and incubated with primary antibodies against tubulin, iNOS, COX-2, and α-tubulin. […] membranes were incubated with horseradish peroxidase-conjugated secondary antibodies, and protein bands were visualized using ECL Western Blotting Detection Reagents (Amersham Pharmacia Biotech). Quantitative analysis of the protein bands was quantified using Image Master 2D Elite software (version 3.1, Amersham Pharmacia Biotech).
(In general: Immunoblotting shows a protein as a band on a membrane.)

For the next data set, the target named is T10, mTOR/FRAP1 (Homo sapiens, UniProt P42345).
T10 construct: purchased Reaction Biology Corp
In words: Kinase panel assay (radiolabelled). It is filed as biochemical. To be noted: 30 μM compound, ATP 10 μM, duplicates Data 1/Data 2.

Setting [1] is: read-out: % Enzyme Activity (relative to DMSO controls).

T1 sequence (Q15759 whole entry): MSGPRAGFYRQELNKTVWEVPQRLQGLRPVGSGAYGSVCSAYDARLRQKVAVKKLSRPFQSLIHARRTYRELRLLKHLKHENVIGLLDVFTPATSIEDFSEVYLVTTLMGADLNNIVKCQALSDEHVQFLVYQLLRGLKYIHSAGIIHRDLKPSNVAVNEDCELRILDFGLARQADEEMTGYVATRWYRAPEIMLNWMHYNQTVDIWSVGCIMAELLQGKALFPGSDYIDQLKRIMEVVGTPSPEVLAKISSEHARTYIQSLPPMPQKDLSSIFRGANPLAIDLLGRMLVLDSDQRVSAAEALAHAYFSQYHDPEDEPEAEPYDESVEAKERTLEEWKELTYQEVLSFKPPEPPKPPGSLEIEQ
T2 sequence (P04629 33-796): as the sequence (P04629 33-796 G595R) above, with R563G counted along it

For the compound `O=C1C=CC2(C=C1)OCC(Cc1cc(C(F)(F)F)cc(C(F)(F)F)c1)C(=O)N2c1ccccc1` (racemic) [1c], the “% Residual Activity at 30 μM” value at P38b/MAPK11 is reported as 87.0 ± 1.1%; on TRKA, 98.3 ± 0.1%; on JNK2, 58.3 ± 0.7%; on ROCK2, 103.9 ± 2.4%; on TLK1, 58.0 ± 0.9%. Moreover, the “Cell Viability (%)” value in the data set with BV-2 cells is 92 ± 13%.

In general, viability refers to a read-out of living cells in per cent, often relative to untreated cells. For `O=C1C=CC2(C=C1)OCC(Cc1cn(-c3cccc(Cl)c3)nn1)C(=O)N2c1ccccc1` (stereo not drawn) [2d, 3-((1-(3-Chlorophenyl)-1H-1,2,3-triazol-4-yl)methyl)-5-phenyl-1-oxa-5-azaspiro[5.5]undeca-7,10-diene-4,9-dione], the “% Enzyme Activity (relative to DMSO controls)” value was determined as 101.50% on PI4Ka; 97.21% on PKN2/PRK2 (30 μM compound, duplicates Data 1/Data 2); 99.08% on TRKA (G595R); 90.95% at SPHK2; 96.09% at mTOR/FRAP1. In addition, the remaining activity at 30 µM on PI4Ka (setting [1]) was 101%; at PKN2/PRK2 (30 μM compound, duplicates Data 1/Data 2, read-out: % Enzyme Activity (relative to DMSO controls)) it was 102%; on PKN2/PRK2 (30 μM, average ± SD, read-out: % Residual Activity at 30 μM) it was 99.5 ± 3.3%; on TRKA (G595R) (setting [1]), 103%; at SPHK2 (setting [1]), 91.5%; at mTOR/FRAP1 (setting [1]) it was 103%. Besides, the viability at 24 h, 1 µM in the data set “MTT cell viability assay” (1 μM compound) worked out at 112 ± 19.8%. Moreover, the viability at 24 h, 5 µM in “MTT cell viability assay” (5 μM compound, % of LPS) turned out to be 90 ± 6%. In the data set on IL-6, the “IL-6 level” value was “concentration-dependent manner”. Further, the “COX-2 expression level” value with COX-2 was “the regulation of COX-2 showed concentration dependency”.
